Like-named read-outs stand apart in the source and are kept apart here.
Test system: PD-1-overexpressing Jurkat cells
Test: Small molecule screen: IL2 secretion (AlphaLISA) from stimulated PD-1-overexpressing Jurkat cells
Format: cell-based, human
Protocol: PD-1-overexpressing Jurkat cells were plated at a concentration of 100,000 cells/well in a total volume of 80 μl. […] Dynabeads conjugated to α-CD3, α-CD28, and α-PD-1 antibodies were added in 20 for a final assay volume of 100 with a final compound concentration of 3.3 μM and an 8:1 bead:cell ratio. Beads were conjugated to α-CD3/α-CD28/control IgG and added to wells containing DMSO-treated cells as a positive control, while beads conjugated to α-CD3/α-CD28/α-PD1 were added to wells containing DMSO-treated cells as a negative control. Supernatants from each well were analyzed for IL2 levels by AlphaLISA (Perkin Elmers) according to the manufacturer's protocol. Average and standard deviation values were calculated from the PD-1 controls (DMSO-treated cells stimulated with α-CD3/α-CD28/α-PD-1 beads); hits were defined as compounds scoring at least 3 standard deviations from the mean of the controls.
In addition to known negative regulators of IL-2 production (e.g. glycogen synthase kinase-3α/β (GSK3α/β) (24,25)), this screen identified cyclin-dependent kinases 4 and 6 inhibitors (CDK4/6i) as top hits (Table 1).

[1] = IL2 level, replicate 1, 3.3 μM compound, α-CD3/α-CD28/α-PD-1 beads
[2] = IL2 level, replicate 2, 3.3 μM compound, α-CD3/α-CD28/α-PD-1 beads
[3] = average of replicate Z scores, 3.3 μM compound

Row | Compound | Zscore_1 [1] | Zscore_2 [2] | Zscore_AVG [3] | Zscore_1 | Zscore_2 | Zscore_AVG
1 | CC(C)n1cnc2c(Nc3cccc(Cl)c3)nc(NCCO)nc21 [Compound 52] | −1.412 | −0.2643 | −0.8381 | – | – | –
2 | PI 3-K&gamme;/CKII Inhibitor | −0.8209 | −0.5789 | −0.6999 | – | – | –
3 | N/C(=N\[N+](=O)[O-])N/N=C\c1ccc(-c2cccc([N+](=O)[O-])c2)o1 [ERK Inhibitor III] | 0.9783 | 2.555 | 1.767 | – | – | –
4 | COc1cccc(-c2cc(=O)c3ccccc3o2)c1N [PD98059] | −1.781 | −1.614 | −1.698 | – | – | –
5 | Tpl2 Kinase Inhibitor II | −2.398 | −4.19 | −3.294 | – | – | –
6 | O=C(CCCc1ccc(-c2ccccc2F)cc1)Nc1ccc(O)cc1 [MK2a Inhibitor] | −1.455 | −2.305 | −1.88 | – | – | –
7 | N#Cc1c(NC(=O)c2cccc3ccccc23)sc2c1CCCC2 [JNK Inhibitor IX] | 0.5842 | −0.05285 | 0.2657 | – | – | –
8 | NS(=O)(=O)c1ccc(N/N=C2\C(=O)Nc3ccc(Br)cc32)cc1 [Cdk2 Inhibitor II] | −0.2096 | −0.6424 | −0.426 | – | – | –
9 | COc1ccc(CNc2nc(N(CCO)CCO)nc3c2ncn3C(C)C)cc1 [Cdk2 Inhibitor III] | −2.414 | −4.745 | −3.58 | – | – | –
10 | c1ccc2c(-c3ccncc3)c[nH]c2c1 [Rho Kinase Inhibitor III, Rockout] | −0.1806 | −2.59 | −1.385 | – | – | –
11 | IKK-2 Inhibitor XI | −4.485 | −6.012 | −5.248 | – | – | –
12 | G&omul; 7874, Hydrochloride | −4.465 | −6.385 | −5.425 | – | – | –
13 | CO[C@H]1[C@@H](OC)C[C@H](C)[C@@H](OC)C2=CC(=O)C=C(NC(=O)/C(C)=C/C=C\[C@H](OC)[C@@H](OC(N)=O)/C(C)=C/[C@@H]1C)C2=O [Herbimycin A, Streptomyces sp.] | 5.643 | 3.663 | 4.653 | – | – | –
14 | Cn1nc2c3c(cccc31)C(=O)c1ccccc1-2 [JNK Inhibitor, Negative Control] | 0.1027 | 1.046 | 0.5746 | – | – | –
15 | GTP-14564 | −0.5638 | 2.605 | 1.021 | – | – | –
16 | Cc1ncc2ccccc2c1C#N [4-Cyano-3-methylisoquinoline] | −0.7566 | 0.1385 | −0.3091 | – | – | –
17 | CC(C)(C)n1nc(Cc2cccc3ccccc23)c2c(N)ncnc21 [PP1 Analog II, 1NM-PP1] | −0.9751 | 0.08497 | −0.4451 | – | – | –
18 | Nc1ncnc2c1c(-c1ccc(Oc3ccccc3)cc1)cn2C1CCCC1 [Lck Inhibitor] | −8.467 | −8.924 | −8.695 | – | – | –
19 | O=C1Cc2c([nH]c3ccc(Br)cc23)-c2ccccc2N1 [Kenpaullone] | −0.7695 | −1.747 | −1.258 | – | – | –
20 | O=C1C(Cl)=C(N2C(=O)CCC2=O)C(=O)c2ccccc21 [MEK Inhibitor II] | −2.22 | −1.364 | −1.792 | – | – | –
21 | Nc1n[nH]c(N)c1N=Nc1ccc(O)cc1 [Cdk9 Inhibitor II] | −0.7951 | 0.1385 | −0.3283 | – | – | –
22 | Isogranulatinude | 1.39 | 4.572 | 2.981 | – | – | –
23 | O=c1[nH][nH]c2nnc(-c3c(-c4ccccc4)nn4ccccc34)cc12 [ERK Inhibitor II, Negative Control] | −1.778 | 1.052 | −0.3634 | – | – | –
24 | O=S(=O)(c1c(O)c(Cl)cc(Cl)c1Cl)c1c(O)c(Cl)cc(Cl)c1Cl [p38 MAP Kinase Inhibitor IV] | −0.6495 | 0.005311 | −0.3221 | – | – | –
25 | COc1ccc2c(c1)c(C1=C(c3c[nH]c4ccccc34)C(=O)NC1=O)cn2CCCN(C)C [G? 6983] | −9.778 | −9.075 | −9.426 | – | – | –
26 | CNc1cc2c(Nc3cccc(Br)c3)ncnc2cn1 [PD 158780] | 0.3787 | 0.8816 | 0.6302 | – | – | –

Row | Compound | Zscore_1 [1] | Zscore_2 [2] | Zscore_AVG [3] | Zscore_1 | Zscore_2 | Zscore_AVG
27 | O=C1NC(=NCc2cccs2)S/C1=C\c1ccc2ncccc2c1 [Cdk1 Inhibitor IV, RO-3306] | −4.188 | −2.228 | −3.208 | – | – | –
28 | O=C1NC(=O)c2c1c(-c1ccccc1Cl)cc1[nH]c3ccc(O)cc3c21 [Wee1 Inhibitor] | −0.6621 | −2.209 | −1.436 | – | – | –
29 | Cl.NCCCn1cc(C2=C(c3c[nH]c4ccccc34)C(=O)NC2=O)c2ccccc21 [Bisindolylmaleimide III, Hydrochloride] | −3.661 | −5.093 | −4.377 | – | – | –
30 | Cn1sc(=O)n(Cc2ccccc2)c1=O [GSK-3b Inhibitor I] | −1.327 | −2.222 | −1.774 | – | – | –
31 | COc1ccc2nc3n[nH]c(C)c3c(NCCOCCO)c2c1 [Ras/Rac Transformation Blocker, SCH 51344] | −2.363 | −3.128 | −2.746 | – | – | –
32 | CS(=O)(=O)c1ccc(-c2nc(-c3ccc(F)cc3)c(-c3ccncc3)[nH]2)cc1 [SB 203580, Sulfone] | – | – | – | 2.85 | −0.6448 | 1.103
33 | Polo-like Kinase Inhibitor I | −0.8886 | 0.6237 | −0.1325 | – | – | –
34 | O=C1Nc2ccc(Cl)cc2/C1=C/c1cc(Cl)c(O)c(Cl)c1 [PKR Inhibitor, Negative Control] | −1.427 | −0.4334 | −0.9301 | – | – | –
35 | NC(=O)c1cccc(-c2cc(Nc3ccc(OC(F)(F)F)cc3)ncn2)c1 [Bcr-abl Inhibitor] | 1.402 | 5.274 | 3.338 | – | – | –
36 | c1cc(-c2cnn3cc(-c4ccc(OCCN5CCCCC5)cc4)cnc23)ccn1 [AMPK Inhibitor, Compound C] | −2.877 | 1.296 | −0.7902 | – | – | –
37 | O=C1NC(=O)c2c1c1c3ccccc3[nH]c1c1[nH]c3cc(Br)ccc3c21 [Cdk4 Inhibitor] | 7.007 | 16.07 | 11.54 | – | – | –
38 | COc1ccc(S(=O)(=O)Nc2ccccc2CN(C)C/C=C/c2ccc(Cl)cc2)cc1 [KN-92] | 0.5356 | 0.3912 | 0.4634 | – | – | –
39 | c1ccc(-c2cnc(Nc3ccc(OCCN4CCCC4)cc3)s2)cc1 [Flt-3 Inhibitor III] | 1.171 | 3.361 | 2.266 | – | – | –
40 | CC(C)(C)c1nc2c3cc[nH]c(=O)c3c3cc(F)ccc3c2[nH]1 [JAK Inhibitor I] | −4.034 | −6.012 | −5.023 | – | – | –
41 | CN(C)c1ccc(/C=C2\C(=O)Nc3ccccc32)cc1 [DMBI] | −0.2169 | 0.4405 | 0.1118 | – | – | –
42 | O=C1Nc2ccc(I)cc2/C1=C1/Nc2ccccc2/C1=N\O [Indirubin-3′-monoxime, 5-Iodo-] | 10.18 | 17.16 | 13.67 | – | – | –
43 | CC(C)N(CCC(=O)c1ccc2ccccc2c1)Cc1ccccc1 [JAK3 Inhibitor IV] | 0.2022 | 0.908 | 0.5551 | – | – | –
44 | COc1cc2ncnc(Nc3ccc(NC(=O)c4ccccc4)cc3)c2cc1OC [Aurora Kinase Inhibitor II] | −0.6024 | 2.958 | 1.178 | – | – | –
45 | CC(=O)c1ccc(N2CCOCC2)cc1O [DNA-PK Inhibitor III] | 5.18 | 6.23 | 5.705 | – | – | –
46 | CC(=O)O/N=C1/C(=C2/C(=O)Nc3cc(Br)ccc32)Nc2ccccc21 [GSK-3 Inhibitor X] | 28.58 | 35.89 | 32.23 | – | – | –
47 | N#C/C(=C/c1ccc(O)c(O)c1)C(=O)NCc1ccccc1 [AG 490] | −2.645 | 0.2008 | −1.222 | – | – | –
48 | CCC(=O)Nc1ccc2ncnc(Nc3cccc(Br)c3)c2c1 [PD 174265] | −0.1183 | 0.5895 | 0.2356 | – | – | –
49 | Staurosporine, N-benzoyl- | −5.987 | −7.072 | −6.529 | – | – | –
50 | CN(C)S(=O)(=O)c1ccc2c(c1)/C(=C/c1cc3c([nH]1)CCCC3)C(=O)N2 [SU6656] | 1.733 | 1.333 | 1.533 | – | – | –
51 | C[S+]([O-])c1ccc(-c2nc(-c3ccc(F)cc3)c(-c3ccncc3)[nH]2)cc1 (stereo not drawn) [SB 203580] | −0.8209 | −0.02124 | −0.4211 | – | – | –

Source: US11865176B2, “Compositions and methods of modulating anti-tumor immunity” (Dana-Farber Cancer Institute, Inc., priority 2016, dated 2024)
